# Measured values: patent publication US7015215B2, “Pyrrolo[2,1-c][1,4] benzodiazepines compounds and process thereof” (Council of Scientific and Industrial Research, priority 2003, dated 2006)
# Key:
# SF-539 = assay: NCI SRB cytotoxicity, CNS SF-539; type: cell-based, human; conditions: SF-539, CNS, 48 h
# Description: (§1) Biological Activity: In vitro biological activity studies were carried out at National Cancer Institute (U.S.A.).
# (§2) For each compound, dose response curves for each cell line were measured at a minimum of five concentrations at 10 fold dilutions. A protocol of 48 h continuous drug exposure was used, and a sulforhodamine B (SRB) protein assay was used to estimate cell viability or growth. The concentration causing 50% cell growth inhibition (GI50), total cell growth inhibition (TGI, 0% growth) and 50% cell death (LC50, −50% growth) compared with the control was calculated.
# SF-268 = assay: NCI SRB cytotoxicity, CNS SF-268; type: cell-based, human; conditions: SF-268, CNS, 48 h
# Description: as §1, §2
# M14 = assay: NCI SRB cytotoxicity, Melanoma M14; type: cell-based, human; conditions: 48 h
# Description: as §1, §2
# RXF 393 = assay: NCI SRB cytotoxicity, Renal RXF 393; type: cell-based, human; conditions: RXF 393, Renal, 48 h
# Description: as §2
# SK-OV-3 = assay: NCI SRB cytotoxicity, Ovarian SK-OV-3; type: cell-based, human; conditions: SK-OV-3, Ovarian, 48 h
# Description: as §1, §2
# MALME-3M = assay: NCI SRB cytotoxicity, Melanoma MALME-3M; type: cell-based, human; conditions: 48 h
# Description: as §1, §2
# SNB-75 = assay: NCI SRB cytotoxicity, CNS SNB-75; type: cell-based, human; conditions: SNB-75, CNS, 48 h
# Description: as §1, §2
# TK-10 = assay: NCI SRB cytotoxicity, Renal TK-10; type: cell-based, human; conditions: TK-10, Renal, 48 h
# Description: as §1, §2
# A549/ATCC = assay: NCI SRB cytotoxicity, Non-small-cell lung A549/ATCC; type: cell-based, human; conditions: 48 h
# Description: as §1, §2
# MOLT-4 = assay: NCI SRB cytotoxicity, Leukemia MOLT-4; type: cell-based, human; conditions: MOLT-4, Leukemia, 48 h
# Description: as §1, §2
# NCI-H460 = assay: NCI SRB cytotoxicity, Non-small-cell lung NCI-H460; type: cell-based, human; conditions: 48 h
# Description: as §1, §2
# A498 = assay: NCI SRB cytotoxicity, Renal A498; type: cell-based, human; conditions: 48 h
# Description: as §1, §2
# OVCAR-5 = assay: NCI SRB cytotoxicity, Ovarian OVCAR-5; type: cell-based, human; conditions: OVCAR-5, Ovarian, 48 h
# Description: as §1, §2
# NCI-H522 = assay: NCI SRB cytotoxicity, Non-small-cell lung NCI-H522; type: cell-based, human; conditions: 48 h
# Description: as §1, §2
# OVCAR-4 = assay: NCI SRB cytotoxicity, Ovarian OVCAR-4; type: cell-based, human; conditions: OVCAR-4, Ovarian, 48 h
# Description: as §1, §2
# HL-60(TB) = conditions: Leukemia, 48 h, SRB
# Description: as §1, §2
# OVCAR-3 = assay: NCI SRB cytotoxicity, Ovarian OVCAR-3; type: cell-based, human; conditions: OVCAR-3, Ovarian, 48 h
# Description: as §1, §2
# OVCAR-8 = assay: NCI SRB cytotoxicity, Ovarian OVCAR-8; type: cell-based, human; conditions: OVCAR-8, Ovarian, 48 h
# Description: as §1, §2
# EKVX = assay: NCI SRB cytotoxicity, Non-small-cell lung EKVX; type: cell-based, human; conditions: 48 h
# Description: as §1, §2
# 786-0 = assay: NCI SRB cytotoxicity, Renal 786-0; type: cell-based, human; conditions: 786-0, Renal, 48 h
# Description: as §1, §2
# MDA-MB-435 = assay: NCI SRB cytotoxicity, Breast MDA-MB-435; type: cell-based, human; conditions: MDA-MB-435, Breast, 48 h
# Description: as §1, §2
# LOXIMVI = assay: NCI SRB cytotoxicity, Melanoma LOXIMVI; type: cell-based, human; conditions: 48 h
# Description: as §1, §2
smiles,measurement,setting,value
"COc1cc2c(cc1OCCCCN1CCN(CCCCOc3cc4c(cc3OC)C(=O)N3CCC[C@H]3C=N4)CC1)N=C[C@@H]1CCCN1C2=O [Compound VIc, 1,1′-{[(bisbutane-1,N-diyl)piperazine]dioxy}bis[(11aS)-7-methoxy-1,2,3,11a-tetrahydro-5H-pyrrolo[2,1-c][1,4]benzodiazepin-5-one]]",Log LC 50,SF-539,−4.00 mol/L
same,Log LC 50,SF-268,−4.00 mol/L
same,Log GI 50,M14,−7.60 mol/L
same,Log LC 50,M14,−4.17 mol/L
same,Log GI 50,RXF 393,−7.54 mol/L
same,Log LC 50,RXF 393,−4.00 mol/L
same,Log LC 50,SK-OV-3,−4.00 mol/L
same,Log LC 50,MALME-3M,−7.41 mol/L
same,Log GI 50,SNB-75,−7.94 mol/L
same,Log LC 50,SNB-75,−4.00 mol/L
same,Log GI 50,TK-10,−7.69 mol/L
same,Log LC 50,TK-10,−4.00 mol/L
same,Log GI 50,A549/ATCC,−7.23 mol/L
same,Log LC 50,A549/ATCC,−4.00 mol/L
same,Log LC 50,MOLT-4,−4.00 mol/L
same,Log LC 50,NCI-H460,−4.00 mol/L
same,Log GI 50,A498,−6.89 mol/L
same,Log GI 50,OVCAR-5,−7.92 mol/L
same,Log LC 50,OVCAR-5,−4.00 mol/L
same,Log LC 50,NCI-H522,−4.00 mol/L
same,Log GI 50,OVCAR-4,−7.11 mol/L
same,Log LC 50,OVCAR-4,−4.00 mol/L
same,Log LC 50,HL-60(TB),−4.00 mol/L
same,Log GI 50,OVCAR-3,−7.91 mol/L
same,Log LC 50,OVCAR-3,−4.00 mol/L
same,Log LC 50,OVCAR-8,−4.00 mol/L
same,Log GI 50,EKVX,−6.36 mol/L
same,Log LC 50,EKVX,−4.00 mol/L
same,Log LC 50,786-0,−4.00 mol/L
same,Log GI 50,MDA-MB-435,−7.87 mol/L
same,Log LC 50,MDA-MB-435,−7.15 mol/L
"COc1cc2c(cc1OCCN1CCN(CCOc3cc4c(cc3OC)C(=O)N3CCC[C@H]3C=N4)CC1)N=C[C@@H]1CCCN1C2=O [Compound VIa, 1,1′-{[(bisethane-1,N-diyl)piperazine]dioxy}bis[(11aS)-7-methoxy-1,2,3,11a-tetrahydro-5H-pyrrolo[2,1-c][1,4]benzodiazepin-5-one]]",Log GI 50,SF-539,−4.97 mol/L
same,Log LC 50,SF-539,−4.00 mol/L
same,Log GI 50,SF-268,−4.95 mol/L
same,Log LC 50,SF-268,−4.00 mol/L
same,Log GI 50,M14,−4.61 mol/L
same,Log GI 50,RXF 393,−4.23 mol/L
same,Log LC 50,RXF 393,−4.00 mol/L
same,Log GI 50,SK-OV-3,−4.00 mol/L
same,Log LC 50,SK-OV-3,−4.00 mol/L
same,Log GI 50,MALME-3M,−5.46 mol/L
same,Log LC 50,MALME-3M,−4.17 mol/L
same,Log GI 50,SNB-75,−4.23 mol/L
same,Log LC 50,SNB-75,−4.00 mol/L
same,Log GI 50,TK-10,−4.63 mol/L
same,Log LC 50,TK-10,−4.00 mol/L
same,Log GI 50,A549/ATCC,−4.10 mol/L
same,Log LC 50,A549/ATCC,−4.00 mol/L
same,Log GI 50,MOLT-4,−5.68 mol/L
same,Log LC 50,MOLT-4,−4.10 mol/L
same,Log GI 50,NCI-H460,−4.95 mol/L
same,Log LC 50,NCI-H460,−4.00 mol/L
same,Log GI 50,A498,−4.29 mol/L
same,Log LC 50,A498,−4.00 mol/L
same,Log GI 50,OVCAR-5,−4.65 mol/L
same,Log LC 50,OVCAR-5,−4.00 mol/L
same,Log GI 50,NCI-H522,−4.94 mol/L
same,Log LC 50,NCI-H522,−4.00 mol/L
same,Log GI 50,OVCAR-4,−4.00 mol/L
same,Log LC 50,OVCAR-4,−4.00 mol/L
same,Log GI 50,HL-60(TB),−5.49 mol/L
same,Log LC 50,HL-60(TB),−4.00 mol/L
same,Log GI 50,OVCAR-3,−4.68 mol/L
same,Log LC 50,OVCAR-3,−4.00 mol/L
same,Log GI 50,OVCAR-8,−4.58 mol/L
same,Log LC 50,OVCAR-8,−4.00 mol/L
same,Log GI 50,EKVX,−4.00 mol/L
same,Log LC 50,EKVX,−4.00 mol/L
same,Log GI 50,786-0,−4.84 mol/L
same,Log LC 50,786-0,−4.00 mol/L
same,Log GI 50,MDA-MB-435,−4.71 mol/L
same,Log LC 50,MDA-MB-435,−4.08 mol/L
"COc1cc2c(cc1OCCCN1CCN(CCCOc3cc4c(cc3OC)C(=O)N3CCC[C@H]3C=N4)CC1)N=C[C@@H]1CCCN1C2=O [Compound VIb, 1,1′-{[(bispropane-1,N-diyl)piperazine]dioxy}bis[(11aS)-7-methoxy-1,2,3,11a-tetrahydro-5H-pyrrolo[2,1-c][1,4]benzodiazepin-5-one]]",Log GI 50,SF-539,−6.21 mol/L
same,Log LC 50,SF-539,−4.00 mol/L
same,Log GI 50,SF-268,−5.52 mol/L
same,Log GI 50,M14,−5.55 mol/L
same,Log LC 50,M14,−4.00 mol/L
same,Log GI 50,RXF 393,−5.68 mol/L
same,Log LC 50,RXF 393,−4.09 mol/L
same,Log GI 50,MALME-3M,−5.39 mol/L
same,Log GI 50,SNB-75,−4.61 mol/L
same,Log LC 50,SNB-75,−4.00 mol/L
same,Log GI 50,TK-10,−5.10 mol/L
same,Log LC 50,TK-10,−4.00 mol/L
same,Log GI 50,A549/ATCC,−4.37 mol/L
same,Log LC 50,A549/ATCC,−4.00 mol/L
same,Log GI 50,MOLT-4,−6.50 mol/L
same,Log LC 50,MOLT-4,−4.08 mol/L
same,Log GI 50,NCI-H460,−5.37 mol/L
same,Log LC 50,NCI-H460,−4.00 mol/L
same,Log GI 50,A498,−5.73 mol/L
same,Log LC 50,A498,−4.00 mol/L
same,Log GI 50,OVCAR-5,−5.06 mol/L
same,Log LC 50,OVCAR-5,−4.00 mol/L
same,Log GI 50,NCI-H522,−6.40 mol/L
same,Log LC 50,NCI-H522,−4.00 mol/L
same,Log GI 50,OVCAR-4,−4.13 mol/L
same,Log LC 50,OVCAR-4,−4.00 mol/L
same,Log GI 50,HL-60(TB),−6.66 mol/L
same,Log LC 50,HL-60(TB),−4.00 mol/L
same,Log GI 50,OVCAR-3,−5.47 mol/L
same,Log LC 50,OVCAR-3,−4.00 mol/L
same,Log GI 50,OVCAR-8,−4.48 mol/L
same,Log LC 50,OVCAR-8,−4.00 mol/L
same,Log GI 50,EKVX,−4.47 mol/L
same,Log LC 50,EKVX,−4.00 mol/L
same,Log GI 50,786-0,−5.30 mol/L
same,Log LC 50,786-0,−4.00 mol/L
same,Log GI 50,MDA-MB-435,−5.37 mol/L
same,Log LC 50,MDA-MB-435,−4.09 mol/L
COc1cc2c(cc1OCCCCCN1CCN(CCCCCOc3cc4c(cc3OC)C(=O)N3CCC[C@H]3C=N4)CC1)N=C[C@@H]1CCCN1C2=O [Compound VId],Log GI 50,SF-539,−5.44 mol/L
same,Log LC 50,SF-539,−4.00 mol/L
same,Log GI 50,SF-268,−5.44 mol/L
same,Log GI 50,M14,−4.76 mol/L
same,Log GI 50,RXF 393,−8.00 mol/L
same,Log LC 50,RXF 393,−5.09 mol/L
same,Log GI 50,LOXIMVI,−5.61 mol/L
same,Log LC 50,LOXIMVI,−4.00 mol/L
same,Log GI 50,SNB-75,−4.51 mol/L
same,Log LC 50,SNB-75,−4.00 mol/L
same,Log LC 50,TK-10,−4.00 mol/L
same,Log GI 50,A549/ATCC,−4.66 mol/L
same,Log LC 50,A549/ATCC,−4.00 mol/L
same,Log GI 50,MOLT-4,−4.79 mol/L
same,Log LC 50,MOLT-4,−4.00 mol/L
same,Log GI 50,NCI-H460,−5.49 mol/L
same,Log LC 50,NCI-H460,−4.00 mol/L
same,Log GI 50,A498,−5.00 mol/L
same,Log LC 50,A498,−4.00 mol/L
same,Log GI 50,OVCAR-5,−5.33 mol/L
same,Log LC 50,OVCAR-5,−4.00 mol/L
same,Log GI 50,NCI-H522,−5.47 mol/L
same,Log LC 50,NCI-H522,−4.00 mol/L
same,Log GI 50,OVCAR-4,−5.38 mol/L
same,Log LC 50,OVCAR-4,−4.00 mol/L
same,Log GI 50,HL-60(TB),−5.38 mol/L
same,Log LC 50,HL-60(TB),−4.00 mol/L
same,Log GI 50,OVCAR-3,−5.32 mol/L
same,Log LC 50,OVCAR-3,−4.00 mol/L
same,Log GI 50,OVCAR-8,−4.67 mol/L
same,Log LC 50,OVCAR-8,−4.00 mol/L
same,Log GI 50,EKVX,−4.33 mol/L
same,Log LC 50,EKVX,−4.00 mol/L
same,Log GI 50,786-0,−5.61 mol/L
same,Log LC 50,786-0,−4.00 mol/L
same,Log GI 50,MDA-MB-435,−5.37 mol/L
same,Log LC 50,MDA-MB-435,−4.00 mol/L
